According to ChEMBL document CHEMBL3885881, “DrugMatrix”:

Species on record: Rattus norvegicus
Assay: DrugMatrix - Regimen: Daily Repeat
Format: toxicity, organism-based, Sprague-Dawley
Design: regimen Daily Repeat, gender Male, age 6-8 weeks
Conditions: in vivo, po, route oral GAVAGE, vehicle 100 % WATER; for ABSOLUTE BASOPHIL / ABSOLUTE EOSINOPHIL / ABSOLUTE LYMPHOCYTE / ABSOLUTE MONOCYTE / ABSOLUTE SEGMENTED NEUTROPHIL / BASOPHIL / EOSINOPHIL / ERYTHROCYTE COUNT / HEMATOCRIT / HEMOGLOBIN / LEUKOCYTE COUNT / LYMPHOCYTE / MEAN CORPUSCULAR HEMOGLOBIN / MEAN CORPUSCULAR HEMOGLOBIN CONCENTRATION / MEAN CORPUSCULAR VOLUME / MONOCYTE / NEUTROPHIL / NUCLEATED RED BLOOD CELLS / PLATELET COUNT: tissue Blood; for ALANINE AMINOTRANSFERASE / ALBUMIN / ALKALINE PHOSPHATASE / ASPARTATE AMINOTRANSFERASE / BLOOD UREA NITROGEN / CARBON DIOXIDE / CHLORIDE / CHOLESTEROL / CREATINE PHOSPHOKINASE / CREATININE / GLUCOSE / LACTATE DEHYDROGENASE / LIPASE / PHOSPHORUS / POTASSIUM / SODIUM / TOTAL BILIRUBIN / TOTAL PROTEIN / URIC ACID: tissue Plasma
[1] = 0 mg/kg, 72 h, dose level Control, time 3 day
[2] = 0 mg/kg, 120 h, dose level Control, time 5 day
[3] = 33 mg/kg, 72 h, dose level Low, time 3 day
[4] = 33 mg/kg, 120 h, dose level Low, time 5 day

C1CCN2C[C@@H]3C[C@@H](CN4CCCC[C@@H]34)[C@H]2C1 [SPARTEINE]
ABSOLUTE BASOPHIL [1]: 0 CELLS/uL
ABSOLUTE EOSINOPHIL [1]: 86.33 CELLS/uL
ABSOLUTE LYMPHOCYTE [1]: 12090.17 CELLS/uL
ABSOLUTE MONOCYTE [1]: 166.67 CELLS/uL
ABSOLUTE SEGMENTED NEUTROPHIL [1]: 1090.17 CELLS/uL
BASOPHIL [1]: 0%
EOSINOPHIL [1]: 0.67%
ERYTHROCYTE COUNT [1]: 5.57 x10E6/uL
HEMATOCRIT [1]: 35.33%
HEMOGLOBIN [1]: 13.83 G/DL
LEUKOCYTE COUNT [1]: 13.43 x10E3/uL
LYMPHOCYTE [1]: 89.83%
MEAN CORPUSCULAR HEMOGLOBIN [1]: 24.88 pg
MEAN CORPUSCULAR HEMOGLOBIN CONCENTRATION [1]: 39.15 G/DL
MEAN CORPUSCULAR VOLUME [1]: 63.52 fL
MONOCYTE [1]: 1.17%
NEUTROPHIL [1]: 8.33%
NUCLEATED RED BLOOD CELLS [1]: 0 /100WBC
PLATELET COUNT [1]: 1181.33 x10E3/uL
ALANINE AMINOTRANSFERASE [1]: 48.33 u/L
ALBUMIN [1]: 4.1 G/DL
ALKALINE PHOSPHATASE [1]: 395 u/L
ASPARTATE AMINOTRANSFERASE [1]: 81.83 u/L
BLOOD UREA NITROGEN [1]: 15.83 mg/dL
CARBON DIOXIDE [1]: 24.17 mmol/L
CHLORIDE [1]: 103.83 MEQ/L
CHOLESTEROL [1]: 63.67 mg/dL
CREATINE PHOSPHOKINASE [1]: 372.83 u/L
CREATININE [1]: 0.18 mg/dL
GLUCOSE [1]: 173.83 mg/dL
LACTATE DEHYDROGENASE [1]: 188.33 u/L
LIPASE [1]: 9.5 u/L
PHOSPHORUS [1]: 11.95 mg/dL
POTASSIUM [1]: 5.99 MEQ/L
SODIUM [1]: 144.43 MEQ/L
TOTAL BILIRUBIN [1]: 0.15 mg/dL
TOTAL PROTEIN [1]: 5.95 G/DL
URIC ACID [1]: 1.82 mg/dL
ABSOLUTE BASOPHIL [2]: 0 CELLS/uL
ABSOLUTE EOSINOPHIL [2]: 26.67 CELLS/uL
ABSOLUTE LYMPHOCYTE [2]: 7583.83 CELLS/uL
ABSOLUTE MONOCYTE [2]: 131.33 CELLS/uL
ABSOLUTE SEGMENTED NEUTROPHIL [2]: 674.83 CELLS/uL
BASOPHIL [2]: 0%
EOSINOPHIL [2]: 0.33%
ERYTHROCYTE COUNT [2]: 5.78 x10E6/uL
HEMATOCRIT [2]: 36.48%
HEMOGLOBIN [2]: 14.03 G/DL
LEUKOCYTE COUNT [2]: 8.42 x10E3/uL
LYMPHOCYTE [2]: 89.83%
MEAN CORPUSCULAR HEMOGLOBIN [2]: 24.3 pg
MEAN CORPUSCULAR HEMOGLOBIN CONCENTRATION [2]: 38.52 G/DL
MEAN CORPUSCULAR VOLUME [2]: 63.15 fL
MONOCYTE [2]: 1.67%
NEUTROPHIL [2]: 8.17%
NUCLEATED RED BLOOD CELLS [2]: 0 /100WBC
PLATELET COUNT [2]: 1186.67 x10E3/uL
ALANINE AMINOTRANSFERASE [2]: 50.17 u/L
ALBUMIN [2]: 4.07 G/DL
ALKALINE PHOSPHATASE [2]: 367.5 u/L
ASPARTATE AMINOTRANSFERASE [2]: 81.67 u/L
BLOOD UREA NITROGEN [2]: 16.17 mg/dL
CARBON DIOXIDE [2]: 32.33 mmol/L
CHLORIDE [2]: 101.5 MEQ/L
CHOLESTEROL [2]: 65.33 mg/dL
CREATINE PHOSPHOKINASE [2]: 255.33 u/L
CREATININE [2]: 0.17 mg/dL
GLUCOSE [2]: 139.33 mg/dL
LACTATE DEHYDROGENASE [2]: 95 u/L
LIPASE [2]: 10.5 u/L
PHOSPHORUS [2]: 10.38 mg/dL
POTASSIUM [2]: 6.11 MEQ/L
SODIUM [2]: 145.55 MEQ/L
TOTAL BILIRUBIN [2]: 0.17 mg/dL
TOTAL PROTEIN [2]: 5.98 G/DL
URIC ACID [2]: 0.93 mg/dL
ABSOLUTE BASOPHIL [3]: 0 CELLS/uL
ABSOLUTE EOSINOPHIL [3]: 58.33 CELLS/uL
ABSOLUTE LYMPHOCYTE [3]: 13527.67 CELLS/uL
ABSOLUTE MONOCYTE [3]: 237.33 CELLS/uL
ABSOLUTE SEGMENTED NEUTROPHIL [3]: 1176.67 CELLS/uL
BASOPHIL [3]: 0%
EOSINOPHIL [3]: 0.33%
ERYTHROCYTE COUNT [3]: 5.67 x10E6/uL
HEMATOCRIT [3]: 36.13%
HEMOGLOBIN [3]: 14 G/DL
LEUKOCYTE COUNT [3]: 15 x10E3/uL
LYMPHOCYTE [3]: 90%
MEAN CORPUSCULAR HEMOGLOBIN [3]: 24.8 pg
MEAN CORPUSCULAR HEMOGLOBIN CONCENTRATION [3]: 38.83 G/DL
MEAN CORPUSCULAR VOLUME [3]: 63.9 fL
MONOCYTE [3]: 1.67%
NEUTROPHIL [3]: 8%
NUCLEATED RED BLOOD CELLS [3]: 0.33 /100WBC
PLATELET COUNT [3]: 1335 x10E3/uL
ALANINE AMINOTRANSFERASE [3]: 50.67 u/L
ALBUMIN [3]: 3.9 G/DL
ALKALINE PHOSPHATASE [3]: 377.67 u/L
ASPARTATE AMINOTRANSFERASE [3]: 91 u/L
BLOOD UREA NITROGEN [3]: 15 mg/dL
CARBON DIOXIDE [3]: 25.67 mmol/L
CHLORIDE [3]: 102 MEQ/L
CHOLESTEROL [3]: 61.33 mg/dL
CREATINE PHOSPHOKINASE [3]: 251.67 u/L
CREATININE [3]: 0.12 mg/dL
GLUCOSE [3]: 152 mg/dL
LACTATE DEHYDROGENASE [3]: 249 u/L
LIPASE [3]: 9 u/L
PHOSPHORUS [3]: 13.2 mg/dL
POTASSIUM [3]: 6.44 MEQ/L
SODIUM [3]: 143.4 MEQ/L
TOTAL BILIRUBIN [3]: 0.13 mg/dL
TOTAL PROTEIN [3]: 5.73 G/DL
URIC ACID [3]: 1.43 mg/dL
ABSOLUTE BASOPHIL [4]: 0 CELLS/uL
ABSOLUTE EOSINOPHIL [4]: 62 CELLS/uL
ABSOLUTE LYMPHOCYTE [4]: 7311 CELLS/uL
ABSOLUTE MONOCYTE [4]: 83 CELLS/uL
ABSOLUTE SEGMENTED NEUTROPHIL [4]: 677.33 CELLS/uL
BASOPHIL [4]: 0%
EOSINOPHIL [4]: 0.67%
ERYTHROCYTE COUNT [4]: 5.58 x10E6/uL
HEMATOCRIT [4]: 34.4%
HEMOGLOBIN [4]: 13.3 G/DL
LEUKOCYTE COUNT [4]: 8.13 x10E3/uL
LYMPHOCYTE [4]: 90.33%
MEAN CORPUSCULAR HEMOGLOBIN [4]: 23.87 pg
MEAN CORPUSCULAR HEMOGLOBIN CONCENTRATION [4]: 38.67 G/DL
MEAN CORPUSCULAR VOLUME [4]: 61.8 fL
MONOCYTE [4]: 1%
NEUTROPHIL [4]: 8%
NUCLEATED RED BLOOD CELLS [4]: 0 /100WBC
PLATELET COUNT [4]: 1046.67 x10E3/uL
ALANINE AMINOTRANSFERASE [4]: 55.33 u/L
ALBUMIN [4]: 3.93 G/DL
ALKALINE PHOSPHATASE [4]: 372 u/L
ASPARTATE AMINOTRANSFERASE [4]: 82.67 u/L
BLOOD UREA NITROGEN [4]: 16.33 mg/dL
CARBON DIOXIDE [4]: 31.67 mmol/L
CHLORIDE [4]: 102.33 MEQ/L
CHOLESTEROL [4]: 65.33 mg/dL
CREATINE PHOSPHOKINASE [4]: 351.67 u/L
CREATININE [4]: 0.16 mg/dL
GLUCOSE [4]: 143.67 mg/dL
LACTATE DEHYDROGENASE [4]: 104.67 u/L
LIPASE [4]: 10 u/L
PHOSPHORUS [4]: 10.67 mg/dL
POTASSIUM [4]: 5.96 MEQ/L
SODIUM [4]: 145.73 MEQ/L
TOTAL BILIRUBIN [4]: 0.13 mg/dL
TOTAL PROTEIN [4]: 5.97 G/DL
URIC ACID [4]: 0.63 mg/dL
